System: GAS5 lncRNA
Experiment: γ-AApeptide OBOC combinatorial library screen with fluorescein tagged GAS5 oligonucleotide, hits validated in vitro
Assay type: binding
Conditions: fluorescein tagged GAS5 oligonucleotide probe, tRNA as control
From the text: The interaction between UPF1 and GAS5 was disrupted using a γ-AApeptide based one-bead-one-compound (OBOC) combinatorial library (Wu H, Li Y, Bai G, Niu Y, Qiao Q, Tipton J D, Cao C, Cai J. gamma-AApeptide-based small-molecule ligands that inhibit Abeta aggregation. Chemical communications. 2014; 50(40):5206-8. doi: 10.1039/c3cc46685j. PubMed PMID: 24158240). The γ-AApeptide is a peptidomimetic with side chains for chemical diversity and are resistant to proteolytic cleavage. To screen the compound library, a probe that contained a fluorescein tagged oligonucleotide was synthesized. The probe spanned 30 nucleotides on either side of the UAA sequences on GAS5 (FIG. 13) The fluorescein was attached to the 5′end (beginning of oligonucleotide probe sequence). The nucleotide sequence within the GAS5 IncRNA that the oligonucleotide probe binds to can be about 100% identical to […] (SEQ ID NO: 4), which is nucleotides 541 to 651 of SEQ ID NO: 1. The underlined regions indicate the UAA that is the target regions. As such, the oligonucleotide probe was designed to flank both sides of these target regions.
The length of oligonucleotide was required to maintain stem loop structure to specifically bind to GAS5. Further, we modeled the oligonucleotide (RNAfold software) to evaluate its folding and verified absence of any unwanted secondary structures. The backbone was modified by 2′-MOE (2′-O-methoxyethylribose), which protects it from degradation and a fluoroscein tag was attached to the 5′end to aid in screening. The oligonucleotide probe was used to screen 160,000 molecules in the combinatorial library using tRNA as control (as tRNA has similar stem loop secondary structures). […] The compound having a structure according to Formula 3 was determined to have a chemical formula of C68H92N10O9S, a mass of about 1224.6769, and a molecular weight of 1225.6050. The compound having a structure according to Formula 14 was determined to have a chemical formula of C63H85N9O13S, a mass of about 1207.5988, and a molecular weight of 1208.4830. […]

Structure (SMILES) | ability to bind GAS5 (identified and validated from library screen)
NCCCC[C@H]1CN(C(=O)CCc2ccccc2)CC(=O)N[C@@H](CCC(=O)O)CN(CC(N)=O)C(=O)CCSCc2ccc(cc2)C(=O)N[C@@H](CCC(=O)O)CN(C(=O)CCC(=O)O)CC(=O)N[C@@H](CCCCN)CN(C(=O)CCCN)CC(=O)N1 [NPG567] | can bind GAS5
CC(C)C[C@H]1CN(C(=O)CC2CC2)CC(=O)N[C@@H](CCCCN)CN(C(=O)CCc2ccccc2)CC(=O)N[C@@H](Cc2ccccc2)CN(CC(N)=O)C(=O)CCSCc2ccc(cc2)C(=O)N[C@@H](Cc2ccccc2)CN(C(=O)CC2CC2)CC(=O)N1 [Formula G5-1397] | able to bind GAS5
